Where two headings read alike, the source gives them in different places.
Key:
CB1 receptor = CB1 receptor (Homo sapiens, UniProt P21554); assay: CB1 binding assay
visceral pain = assay: Visceral pain, acetic acid induced writhing responses; assay type: in vivo, ICR mice; conditions: for inhibition of pain response as compared to untreated animals: 10 mg/kg p.o. in phosphate buffer; for reduction of writhing responses as compared to vehicle treated animals: second study; for effect of antagonist alone on number of writhing responses: 1 mg/kg i.v.; for activity in visceral pain model: fumaric acid up to 5 mg/kg, Gabapentin up to 200 mg/kg, celecoxib up to 10 mg/kg
Method: For the i.v. part of the study, compounds were dissolved in CREMOPHOR®:Ethanol and diluted 1:20 in saline prior to injection, fifteen minutes before pain induction. When compounds were delivered per os, they were dissolved in phosphate buffer or in CREMOPHOR®:Ethanol as previously described and administered 1 hour before pain induction. Each treatment group, except for controls comprising at least 30 animals, was composed of at least 6 animals. Fifteen or sixty minutes later, depending on the route selected for drug administration, the mice were injected i.p. with 10 ml/kg of 0.6% acetic acid and the number of visceral pain related behaviors (writhing, stretching, contractions of the abdomen accompanied by an elongation of the body and extension of the hind limbs) is counted over a period of 5 minutes, starting 5 minutes after the acetic acid administration. These visceral pain related behaviors are globally defined as writhing responses (WR). The results are expressed as mean number of writhing responses±SEM. Data were analyzed using analysis of variance (ANOVA) followed by post-hoc Fisher test. A value of p<0.05 was considered to be statistically significant and is indicated on the figure by an asterisk over the relevant treatment group.
The following results were obtained at 2 mg/kg i.v. of test compounds or, in the case of the study performed with cannabinoid receptor antagonists, 1 mg/kg test compound or antagonist alone and 1 mg/kg test compound+1 mg/kg antagonist. In a separate study, it was shown that analgesic activity of compounds of the invention was dose related.

CB2 receptor = CB2 receptor (Homo sapiens, UniProt P34972); assay: CB2 binding assay
CB2 receptor, sequence (P34972 whole entry): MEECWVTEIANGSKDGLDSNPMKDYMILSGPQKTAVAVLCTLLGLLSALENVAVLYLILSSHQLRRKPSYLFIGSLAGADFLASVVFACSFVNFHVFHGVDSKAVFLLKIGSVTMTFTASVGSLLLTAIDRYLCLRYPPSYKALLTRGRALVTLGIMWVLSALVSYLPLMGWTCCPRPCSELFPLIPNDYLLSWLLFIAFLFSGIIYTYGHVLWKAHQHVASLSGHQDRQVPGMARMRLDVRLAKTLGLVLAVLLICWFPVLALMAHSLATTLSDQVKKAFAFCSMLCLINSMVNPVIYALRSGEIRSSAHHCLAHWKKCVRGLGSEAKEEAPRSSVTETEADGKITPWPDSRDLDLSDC

inflammatory pain = assay: Inflammatory pain and paw edema, λ carrageenan; assay type: in vivo, Sprague Dawley rats
Method: Male Sprague Dawley rats (average body weight 200 g, Harlan, Israel) were transiently sedated by placement on dry ice for the duration of the injections. Rats were injected subcutaneously, in the subplantar region of one (right) paw with 0.1 ml of 2% w/v λ Carrageenan in sterile saline. […] Test compounds were administered p.o. by oral gavage immediately after the carrageenan injection as pretreatment. Vehicle (PB) treated animals were used as controls. Before induction of inflammatory pain and three hours after injection, the animals reactions to pain stimuli were tested in two systems. The first stimulus was thermal and assessed by the Plantar Test according to Hargreaves, using Ugo Basile Model 7370. The scale was set to an intensity of 50 arbitrary units. The latency time till the animal lift a paw as a reaction to the thermal stimulus was recorded for both the inflamed and non-inflamed hind paws. The second stimulus was mechanical (tactile) and assessed using a Dynamic Plantar Sesthesiomether (Ugo Basile Model 73400-002). […] Finally, the impact on paw edema was assessed. Paw thickness is measured using a dial thickness gauge (Spring-dial, constant low pressure gauge, Mitutoyo, TG/L-1, 0.00 mm) and paw volume is measured using a plethysmometer (model #7150, Ugo Basile, Italy). At the end of the study, animals were euthanized with an i.p. injection of 100 mg/kg pentobarbitone.
The results are measured as the differences between the two hind paws at time 0 and 3 hours both as ALT, for the latency time in the thermal part of the study, and as ΔForce, for the mechanical part of the study. The paw volume is expressed as percent from vehicle treated animals. Results are expressed as mean±SEM for each treatment group and the differences among those groups are analyzed by analysis of variance (ANOVA) followed by post-hoc Tukey's test. A value of p<0.05 was considered to be statistically significant and is indicated on the figure by an asterisk over the relevant treatment group.

MBP induced acute EAE = assay: MBP induced acute EAE; assay type: in vivo, Lewis rats; conditions: 30 mg/kg i.v. daily for 5 consecutive days from day of disease induction
Method: In the present study, EAE was induced by injection of Myelin Basic Protein (MBP), a method known to model the acute phase of MS. In this model the onset of the disease is observed by the appearance of clinical symptoms about 10 days after induction. The disease progresses and the clinical score increases and peaks around day 15 and spontaneous recovery is observed around day 23 after induction of the disease.
Female Lewis rats (average body weight 130-180 g, Harlan, Israel) were injected s.c. into the hind paws with 25 μg of purified guinea pig myelin basic protein (MBP, Sigma) emulsified in 0.1 ml of Complete Freund's Adjuvant (Difco). Animals were maintained on a 12 hours light/12 hours dark regimen, at a constant temperature of 22° C., with food and water ad libitum. Starting from day 8 following induction, animals were followed up on a daily basis. The results are recorded as clinical score; score of 0 indicates a normal animal with no clinical signs, 0.5 indicates a loss of tonicity in the tail's distal part, 1 indicates whole tail paralysis, 1.5 indicates hind legs weakness in one leg, 2 indicates hind legs weakness in two legs, 2.5 indicates fore legs paralysis in one leg, 3 indicates paralysis of all four legs, 4 indicates complete body paralysis and moribund state and 5 indicates death. The clinical score of the animals is recorded for 15 days following onset of disease until the end of the study 25 days following induction and the area under the curve (AUC) is calculated over this period of time.
Few routes of administration were assessed and the treatments were either administered intravenously (in CE vehicle) or orally by gavage (in PB vehicle) at volume dose of 5 ml/kg.
Results are expressed as mean±SEM and the differences between the treatment groups were analyzed by analysis of variance (ANOVA) followed by Tukey's post hoc test. A value of p<0.05 was considered to be statistically significant and is indicated on the figure by an asterisk over the relevant treatment group.
Compound 18A was dissolved in CREMOPHOR EL®:ethanol and further diluted in physiological buffer prior to i.v. administration. It is now disclosed that compound 18F could be dissolved directly in 80 mM phosphate buffer (pH 6.4) and administered p.o. Compound 18F was administered by oral gavage at doses of 20, 30, 40, 50 and 60 mg/kg to animals showing clinical signs of the disease. Each treatment group comprised at least 10 animals at onset of disease. At some doses, experiments were repeated up to four times.

[1] = tested on: Taxol® induced neuropathic pain; assay: Taxol® induced neuropathic pain; assay type: in vivo, Sprague Dawley rats; conditions: gabapentin 100 mg/kg i.p., morphine 5 mg/kg i.p.; not statistically significant
Method: Male Sprague Dawley rats (average body weight 150-200 g, Harlan, Israel) were administered i.p. with 6 mg/kg Taxol® (Bristol Myers Squibb, USA) every other day for 9 days. On day 13, baseline pain threshold was measured. One hour later, the animals were administered with 5 ml/kg i.p. of vehicle (PB) only and pain threshold was re-established. After an additional hour animals were treated with various doses of compound 18F ranging from 0.5 mg/kg up to 10 mg/kg administered i.p. Morphine at 5 mg/kg i.p. and gabapentin at 100 mg/kg i.p served as positive controls. Each treatment group comprised at least eight animals. One hour post drug administration pain threshold was monitored using thermal and mechanical stimuli as previously described. At the end of the study, rats were euthanized with sodium pentobarbitone 100 mg/kg i.p. Sample rats were then transfused with saline and heparinized 4% formaldehyde solution. The L4-L5 area of the spinal cord and the sciatic nerve were taken for histopathology assessment.
The time latencies for thermal hyperalgesia, and force needed to induce pain of the different treatment groups are compared, using one way ANOVA (analysis of variance), followed by Duncan's post hoc test. A p<0.05 value was considered statistically significant and is indicated on the figure by an asterisk over the relevant treatment group.

iNOS = iNOS gene expression in LPS activated RAW 264.7 macrophages (real-time RT-PCR); assay type: cell-based, mouse; conditions: 10 μM, 1 h pre-treatment, 3 hrs after LPS activation
Method: RAW 264.7 macrophages, a mouse cell line (ATCC # TIB 71), were grown in Dulbecco's modified Eagle's medium (DMEM) with 4 mM L-glutamine adjusted to contain 1.5 g/L sodium bicarbonate, 4.5 g/L glucose, and 10% heat inactivated fetal bovine serum. Cells were grown in tissue culture flasks and seeded at appropriate density into 6 wells tissue culture plates. Four million Raw cells in half a milliliter were stimulated with 1 μg/ml Lipopolysaccharide E. coli 055:B5 (DIFCO Laboratories). The mouse macrophages were pre-treated for one hour with controls or 10 μM of test compounds, and later on activated with LPS. RNA samples were extracted from the cells 3 hrs after activation and iNOS gene expression levels were analyzed by real-time RT-PCR as previously described. For western blot analysis, compounds were tested at 1, 5 and 10 μM and cells were harvested 24 hrs after LPS stimulation. Supernatant were collected and NO secretion was analyzed using ELISA. Cells were washed 3 times with cold PBS, scrapped and lyzed in 100 μl cell lysis buffer containing 20 mM HEPES, pH 7.6, 150 mM NaCl, 1.5 mM MgCl2, 0.2 mM EDTA, 1% Triton X-100, 10% glycerol, 1 mM DTT, 1 mM PMSF, 10 μg/ml aprotinin. 5 µg/ml leupeptin, 10 mM p-nitrophenyl phosphate, 100 mM β-glycerophosphate, 1 mM sodium fluoride, and 0.1 μM sodium orthovanadate. Cells were lyzed on ice for 10 minutes before further processing.
The results of this experiment are expressed as fold activation of iNOS over non-activated macrophages, after normalization to cyclophilin A expression. Compound 18A inhibits 63% of iNOS gene expression, and compounds 18B, 18E and 18F inhibit 55%, 25% and 100% respectively. […] This surprising observation strengthen the fact that compounds of the invention, though chemically related, have distinct and unexpected properties.

CB1 receptor, sequence (P21554 whole entry): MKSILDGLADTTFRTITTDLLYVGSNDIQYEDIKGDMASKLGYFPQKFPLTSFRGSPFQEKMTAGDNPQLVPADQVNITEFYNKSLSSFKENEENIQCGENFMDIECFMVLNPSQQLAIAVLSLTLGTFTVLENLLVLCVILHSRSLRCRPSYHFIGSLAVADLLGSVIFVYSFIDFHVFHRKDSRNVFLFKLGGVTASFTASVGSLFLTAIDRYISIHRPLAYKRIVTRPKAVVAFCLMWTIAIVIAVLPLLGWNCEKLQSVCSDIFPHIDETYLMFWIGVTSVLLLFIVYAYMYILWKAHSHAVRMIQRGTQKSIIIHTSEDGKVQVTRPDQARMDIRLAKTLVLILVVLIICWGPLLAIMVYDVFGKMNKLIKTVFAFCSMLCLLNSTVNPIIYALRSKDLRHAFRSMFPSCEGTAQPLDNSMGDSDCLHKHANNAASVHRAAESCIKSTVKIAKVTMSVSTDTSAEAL

CCCCCCC(C)(C)c1cc(OC(=O)CCC(=O)O)c([C@H]2CC(=O)C3CC2C3(C)C)c(OC(=O)CCC(=O)O)c1 (single isomer, unassigned; (-)) [Compound 18C, (−)-4-{4-[1,1-dimethylheptyl]-2,6-disuccinate-phenyl}-6,6-dimethyl-bicyclo[3.1.1]heptan-2-one]
IC50 (CB1 receptor): 117 nM | inhibition of pain response as compared to untreated animals (visceral pain): 93% | IC50 (CB2 receptor): 1.52 nM

CCCCCCC(C)(C)c1cc(OP(=O)(OCC)OCC)c([C@H]2CC(=O)C3CC2C3(C)C)c(OP(=O)(OCC)OCC)c1 (single isomer, unassigned; (-)) [Compound 18D, (−)-4-{4-[1,1-dimethylheptyl]-2,6-bi-diethylphosphate-phenyl}-6,6-dimethyl-bicyclo[3.1.1]heptan-2-one]
IC50 (CB1 receptor): > 1000 nM | inhibition of writhing responses as compared to vehicle treated group (visceral pain; 2 mg/kg i.v.): minimal effect | IC50 (CB2 receptor): > 1000 nM

CCCCCCC(C)(C)c1cc(OC(=O)/C=C/C(=O)O)c(C2CC(=O)[C@H]3C[C@@H]2C3(C)C)c(OC(=O)/C=C/C(=O)O)c1 (single isomer, unassigned; (-)) [Compound 18G, (−)-4-{4-[1,1-Dimethylheptyl]-2,6-difumarate-phenyl}-6,6-dimethyl-bicyclo[3.1.1]heptan-2-one]
IC50 (CB1 receptor): 325 nM | inhibition of writhing responses as compared to vehicle treated group (visceral pain; 2 mg/kg i.v.): 91% | inhibition of pain response as compared to untreated animals (visceral pain): 56% | paw volume, percent of vehicle (inflammatory pain; 20 mg/kg p.o.): 96% | reduction of ΔLT, thermal stimulus (inflammatory pain; 20 mg/kg p.o.): ineffective | reduction in Δforce, mechanical stimulus (inflammatory pain; single dose of 20 mg/kg p.o.): 8% | IC50 (CB2 receptor): 30 nM

CCCCC(C)(C)c1cc(O)c([C@H]2CC(=O)C3CC2C3(C)C)c(OC(=O)/C=C/C(=O)O)c1 (single isomer, unassigned; (-)) [Compound 18H, (−)-4-{4-[1,1-Dimethylpentyl]-2-fumarate-6-hydroxy-phenyl}-6,6-dimethyl-bicyclo[3.1.1]heptan-2-one]
inhibition of writhing responses as compared to vehicle treated group (visceral pain; 2 mg/kg i.v.): 38% | inhibition of pain response as compared to untreated animals (visceral pain): not effective

Oc1cc2c(cc1O)CN(C(=S)NCCc1ccc(Cl)cc1)CCC2 [CPZ, Capsazepine, reference compound]
reduction of writhing responses as compared to vehicle treated animals (visceral pain; 0.5 mg/kg i.v.): no activity | reduction of writhing responses as compared to vehicle treated animals (visceral pain; 2 mg/kg i.v.): 67%

Cc1c(C(=O)NN2CCCCC2)nn(-c2ccc(Cl)cc2Cl)c1-c1ccc(Cl)cc1 [SR141716A, reference compound]
effect of antagonist alone on number of writhing responses (visceral pain): had not effect

Cc1ccc(-c2cc(C(F)(F)F)nn2-c2ccc(S(N)(=O)=O)cc2)cc1 [celecoxib, reference compound]
activity in visceral pain model (visceral pain): inactive

O=C(O)/C=C/C(=O)O [fumaric acid, reference compound]
activity in visceral pain model (visceral pain): inactive

C[C@H]1C[C@@H]2[C@H]([C@@H](O)C[C@@]3(C)[C@H]2CC[C@]3(O)C(=O)CO)[C@@]2(C)C=CC(=O)C=C12 [methylprednisolone, reference compound]
reduction in AUC of clinical score (MBP induced acute EAE): 34%

CN1CC[C@]23c4c5ccc(O)c4O[C@H]2[C@@H](O)C=C[C@H]3[C@H]1C5 [morphine, reference compound]
effect on pain threshold [1]: trend of increasing the pain threshold

(−)-4-{4-[1,1-Dimethylpentyl]-2-succinate-6-hydroxy-phenyl}-6,6-dimethyl-bicyclo[3.1.1]heptan-2-one [Compound 18E]
inhibition of iNOS gene expression (iNOS): 25% | IC50 (CB1 receptor; read-out: CB1 IC50, displacement of radioligand): 315 nM | inhibition of writhing responses as compared to vehicle treated group (visceral pain; 2 mg/kg i.v.): minimal effect | inhibition of pain response as compared to untreated animals (visceral pain): not effective | IC50 (CB2 receptor; read-out: CB2 IC50, displacement of radioligand): 7.4 nM

SR144528 [reference compound]
effect of antagonist alone on number of writhing responses (visceral pain): had not effect

Source: US20090068143A1, “ORALLY EFFECTIVE C[…]” (priority 2005, published 2009)
